From patent US20120121540A1 (priority 2007, published 2012)

Experiment: HCV replicon assay (luciferase reporter, ET cell line)
Type: cell-based
Conditions: Hepatitis C virus, HCV replicon luciferase activity in ET cells
Experimental: A cell line, ET (Huh-lucubineo-ET) is used for screening of compounds for inhibiting HCV RNA dependent RNA polymerase. The ET cell line is stably transfected with RNA transcripts harboring a I389 luc-ubi-neo/NS3-3′/ET; replicon with firefly luciferase-ubiquitin-neomycin phosphotransferase fusion protein and EMCV-IRES driven NS3-5B polyprotein containing the cell culture adaptive mutations (E1202G; T1280I; K1846T) (Krieger at al, 2001 and unpublished). The ET cells are grown in DMEM (Dulbeco's Modified Eagle's Medium), supplemented with 10% fetal calf serum, 2 mM Glutamine, Penicillin (100 IU/mL)/Streptomycin (100 μg/mL), 1× nonessential amino acids, and 250 μg/mL G418 (“Geneticin”). They are all available through Life Technologies (Bethesda, Md.). The cells are plated at 0.5−1.0×10^4 cells/well in the 96 well plates and incubated for 24 hrs before adding test compound. The compounds are added to the cells to achieve a final concentration of 0.1 nM to 50 μm and a final DMSO (dimethylsulfoxide) concentration of 0.5%. Luciferase activity is measured 48-72 hours later by adding a lysis buffer and the substrate (Catalog number Glo-lysis buffer E2661 and Bright-Glo luciferase system E2620 Promega, Madison, Wis.). Cells should not be too confluent during the assay. Percent inhibition of replication data is plotted relative to no compound control. Under the same condition, cytotoxicity of the compounds are determined using cell proliferation reagent, WST-1 (Roche, Germany). The compounds showing antiviral activities, but no significant cytotoxicities are chosen to determine EC50 and TC50. For these determinations, a 10 point, 2-fold serial dilution for each compound was used, which spans a concentration range of 1000 fold. EC50 and similarly TC50 values were calculated by fitting % inhibition at each concentration to the following equation:
% inhibition=100%/[(EC50/[I])^b+1]
where b is Hill's coefficient.
% inhibition values at a specific concentration, […] for example, can also be derived from the equation above.

SMILES | inhibition at 10 µM
O=C(N[C@H]1C[C@@H]1c1ccccc1)c1nc2c(C(F)(F)F)cc(-c3ccco3)cn2c1Cl (stereo in doubt) [Compound 188, 3-Chloro-6-furan-2-yl-8-trifluoromethyl-imidazo[1,2-a]pyridine-2-carboxylic acid (2-phenyl-cyclopropyl)-amide] | 80.5%
COC(=O)[C@@H]1CN(C(=O)c2nc3c(C(F)(F)F)cc(-c4ccoc4)cn3c2Cl)C[C@H]1c1ccccc1 (stereo in doubt) [Compound 221, 1-(3-Chloro-6-furan-3-yl-8-trifluoromethyl-imidazo[1,2-a]pyridine-2-carbonyl)-4-phenyl-pyrrolidine-3-carboxylic Acid Methyl Ester] | 73.6%
CN(C)CCNC(=O)[C@@H]1CN(C(=O)c2nc3c(C(F)(F)F)cc(-c4ccoc4)cn3c2Cl)C[C@H]1c1ccccc1 (stereo in doubt) [Compound 224, 1-(3-Chloro-6-furan-3-yl-8-trifluoromethyl-imidazo[1,2-a]pyridine-2-carbonyl)-4-phenyl-pyrrolidine-3-carboxylic Acid (2-dimethylamino-ethyl)-amide] | 98.7%
O=C(NCCN1CCOCC1)[C@@H]1CN(C(=O)c2nc3c(C(F)(F)F)cc(-c4ccoc4)cn3c2Cl)C[C@H]1c1ccccc1 (stereo in doubt) [Compound 225] | 39.8%
COC(=O)[C@H]1[C@@H](c2ccccc2)CCN1C(=O)c1nc2c(C(F)(F)F)cc(-c3ccoc3)cn2c1Cl (stereo in doubt) [Compound 227, 1-(3-Chloro-6-furan-3-yl-8-trifluoromethyl-imidazO [1,2-a]pyridine-2-carbonyl)-3-phenyl-pyrrolidine-2-carboxylic Acid Methyl Ester] | 49.2%
CN(C)CCNC(=O)[C@H]1[C@@H](c2ccccc2)CCN1C(=O)c1nc2c(C(F)(F)F)cc(-c3ccoc3)cn2c1Cl (stereo in doubt) [Compound 230, 1-(3-Chloro-6-furan-3-yl-8-trifluoromethyl-imidazo[1,2-a]pyridine-2-carbonyl)-3-phenyl-pyrrolidine-2-carboxylic Acid (2-dimethylamino-ethyl)-amide] | 53.4%
C[C@@H](CNC(=O)c1nc2c(C(F)(F)F)cc(-c3ccoc3)cn2c1Cl)c1ccccc1 (stereo in doubt) [Compound 413, 3-Chloro-6-furan-3-yl-8-trifluoromethyl-imidazo[1,2-a]pyridine-2-carboxylic Acid (2-phenyl-propyl)-amide] | 82.8%
CC(C)(C)OC(=O)N[C@H]1CN(C(=O)c2nc3c(C(F)(F)F)cc(-c4ccoc4)cn3c2Cl)C[C@@H]1c1ccccc1 (stereo in doubt) [Compound 456, (-1-(3-Chloro-6-furan-3-yl-8-trifluoromethyl-imidazo[1,2-a]pyridine-2-carbonyl)-4-phenyl-pyrrolidin-3-yl)-carbamic acid tert-butyl ester] | 79.3%
CS(=O)(=O)N[C@H]1CN(C(=O)c2nc3c(C(F)(F)F)cc(-c4ccoc4)cn3c2Cl)C[C@@H]1c1ccccc1 (stereo in doubt) [Compound 458, N-(-1-(3-Chloro-6-furan-3-yl-8-trifluoromethyl-imidazo[1,2-a]pyridine-2-carbonyl)-4-phenyl-pyrrolidin-3-yl)-methanesulfonamide] | 64.6%
CC(=O)N[C@H]1CN(C(=O)c2nc3c(C(F)(F)F)cc(-c4ccoc4)cn3c2Cl)C[C@@H]1c1ccccc1 (stereo in doubt) [Compound 459, N-(-1-(3-Chloro-6-furan-3-yl-8-trifluoromethyl-imidazo[1,2-a]pyridine-2-carbonyl)-4-phenyl-pyrrolidin-3-yl)-acetamide] | 25.5%
O=C(NCc1cccs1)c1cc2cc(-c3ccccc3)cc(I)n2n1 [Compound 102, 7-Iodo-5-phenyl-pyrazolo[1,5-a]pyridine-2-carboxylic Acid (thiophen-2-ylmethyl)-amide] | 81%
O=C(NCc1cccs1)c1nc2c(C(F)(F)F)cc(-c3ccccc3)nc2[nH]1 [Compound 103, 5-Phenyl-7-trifluoromethyl-3H-imidazo[4,5-b]pyridine-2-carboxylic acid (thiophen-2-ylmethyl)-amide] | 54.7%
O=C(NCc1cccs1)c1[nH]c2c(C(F)(F)F)cc(-c3ccccc3)cc2c1Cl [Compound 104, 3-Chloro-5-phenyl-7-trifluoromethyl-1H-indole-2-carboxylic Acid (thiophen-2-ylmethyl)-amide] | 44%
O=C(NCc1cccs1)c1cc2cc(-c3ccco3)cc(Cl)c2[nH]1 [Compound 105, 7-Chloro-5-furan-2-yl-1H-indole-2-carboxylic acid (thiophen-2-ylmethyl)-amide] | 58.2%
O=C(NCc1cccs1)c1cc2cc(-c3ccccc3)cc(Cl)c2[nH]1 [Compound 106, 7-Chloro-5-phenyl-1H-indole-2-carboxylic Acid (thiophen-2-ylmethyl)-amide] | 60.8%
O=C(NCc1cccs1)c1cc2cc(-c3ccccc3)cc(C(F)(F)F)n2n1 [Compound 107, 5-Phenyl-7-trifluoromethyl-pyrazolo[1,5-a]pyridine-2-carboxylic Acid (thiophen-2-ylmethyl)-amide] | 82.4%
N#Cc1cc(-c2ccccc2)cc2cc(C(=O)NCc3cccs3)nn12 [Compound 108, 7-Cyano-5-phenyl-pyrazolo[1,5-a]pyridine-2-carboxylic acid (thiophen-2-ylmethyl)-amide] | 52.2%
O=C(NCc1cccs1)c1[nH]c2c(Cl)cc(-c3ccccc3)cc2c1Cl [Compound 110, 3,7-Dichloro-5-phenyl-1H-indole-2-carboxylic acid (thiophen-2-ylmethyl)-amide] | 35.9%
O=C(NCc1cccs1)c1cc2cc(-c3ccccc3)cc(Br)n2n1 [Compound 111, 7-Bromo-5-phenyl-pyrazolo[1,5-a]pyridine-2-carboxylic Acid (thiophen-2-ylmethyl)-amide] | 64.2%
O=C(NCc1cccs1)c1nn2c(Br)cc(-c3ccccc3)cc2c1Cl [Compound 112, 7-Bromo-3-chloro-5-phenyl-pyrazolo[1,5-a]pyridine-2-carboxylic Acid (thiophen-2-ylmethyl)-amide] | 74.2%
O=C(NCc1cccs1)c1nn2c(Br)cc(-c3ccccc3)cc2c1Br [Compound 113, 3,7-dibromo-5-phenyl-pyrazolo[1,5-a]pyridine-2-carboxylic Acid (thiophen-2-ylmethyl)-amide] | 77.3%
Cc1cc(-c2ccccc2)cc2cc(C(=O)NCc3cccs3)nn12 [Compound 114, 7-Methyl-5-phenyl-pyrazolo[1,5-a]pyridine-2-carboxylic acid (thiophen-2-ylmethyl)-amide] | 37.9%
Cc1c(C(=O)NCc2cccs2)nn2c(C)cc(-c3ccccc3)cc12 [Compound 115, 3,7-dimethyl-5-phenyl-pyrazolo[1,5-a]pyridine-2-carboxylic Acid (thiophen-2-ylmethyl)-amide] | 55.3%
COc1cc(-c2ccccc2)cc2cc(C(=O)NCc3cccs3)nn12 [Compound 117, 7-Methoxy-5-phenyl-pyrazolo[1,5-a]pyridine-2-carboxylic Acid (thiophen-2-ylmethyl)-amide] | 25.8%
